Here are results for 47 molecules from patent US7902235B2 (priority 2004, dated 2011).

Tested on in one data set: not given
Conditions: not given
As usually defined, the melting point is the temperature of the solid-liquid transition. Regarding `CC(C)CC(C)OC(=O)NC(=O)c1cccc(-c2noc(-c3ccccc3F)n2)c1` (centres unmarked) [Compound 39], the melting point lay in the range of 108 to 109 °C.
Same read-out and setting: under `O=C(NC(=O)c1cccc(-c2noc(-c3ccccc3F)n2)c1)OCCN1CCOCC1` [Compound 12] stands 223 to 224 °C; under `O=C(NC(=O)c1cccc(-c2noc(-c3ccccc3F)n2)c1)Oc1cccc2c1CCCC2` [Compound 23], 199 to 202 °C.
Molecule `O=C(NC(=O)c1cccc(-c2noc(-c3ccccc3F)n2)c1)O[C@@H]1CCOC1` [Compound 49] displayed a melting point of 152 to 156 °C.
On the same count and under the same terms, under `O=C(NC(=O)c1cccc(-c2noc(-c3ccccc3F)n2)c1)OCCc1ccccc1` [Compound 16] stands 129 to 130 °C; under `O=C(NC(=O)N1CCOCC1)c1cccc(-c2noc(-c3ccccc3F)n2)c1` [Compound 25, Morpholine-4-carboxylic Acid 3-[5-(2-fluorophenyl)-[1,2,4]oxadiazol-3-yl]benzoylamide], 190 to 194 °C; under `CN1C(=O)C[C@H](OC(=O)NC(=O)c2cccc(-c3noc(-c4ccccc4F)n3)c2)C1=O` [Compound 43], 120 to 123 °C.
Consider `O=C(NC(=O)c1cccc(-c2noc(-c3ccccc3F)n2)c1)OC1CCOCC1` [Compound 11], for which the melting point lay in the range of 177.5 to 179 °C.
Take `NC(=O)NC(=O)c1cccc(-c2noc(-c3ccccc3F)n2)c1` [Compound 6]: the melting point amounted to 240 °C.
The same measure, in the same setting: under `O=C(NC(=O)c1cccc(-c2noc(-c3ccccc3F)n2)c1)OC1CCN(Cc2ccccc2)CC1` [Compound 42] stands 132 to 134 °C; under `COCC(C)OC(=O)NC(=O)c1cccc(-c2noc(-c3ccccc3F)n2)c1` (centres unmarked) [Compound 34], 141 to 143 °C.
Still for that read-out and setting: under `CC(OC(=O)NC(=O)c1cccc(-c2noc(-c3ccccc3F)n2)c1)c1ccc(F)cc1` (centres unmarked) [Compound 51] stands 116 to 118 °C.
Still for that read-out and setting: under `CCCOC(=O)NC(=O)c1cccc(-c2noc(-c3ccccc3F)n2)c1` [Compound 20] stands 152 to 155 °C; under `O=C(NC(=O)c1cccc(-c2noc(-c3ccccc3F)n2)c1)OC1CCCc2ccccc21` (centres unmarked) [Compound 32], 168 to 170 °C; under `O=C(NC(=O)c1cccc(-c2noc(-c3ccccc3F)n2)c1)OC1CCCCC1` [Compound 17], 172 to 174 °C.
The molecule `O=C(NC(=O)c1cccc(-c2noc(-c3ccccc3F)n2)c1)OC(c1ccccc1)C(F)(F)F` (centres unmarked) [Compound 33] came in with a melting point of 164 to 165 °C.
On the same count and under the same terms, under `O=C(NC(=O)c1cccc(-c2noc(-c3ccccc3F)n2)c1)OCc1ccccc1` [Compound 19] stands 133 to 134 °C; under `CC(C)C(=O)NC(=O)c1cccc(-c2noc(-c3ccccc3F)n2)c1` [Compound 46, 3-[5-(2-Fluorophenyl)-[1,2,4]oxadiazol-3-yl]-N-isobutyrl-benzamide], 183 to 184 °C.
For `Cc1ccc(S(=O)(=O)NC(=O)NC(=O)c2cccc(-c3noc(-c4ccccc4F)n3)c2)cc1` [Compound 15], the melting point was 188 to 191 °C.
For the molecule `O=C(NC(=O)c1cccc(-c2noc(-c3ccccc3F)n2)c1)OC1CCOC1` (centres unmarked) [Compound 35], the melting point lay in the range of 197 to 200 °C.
Still for that read-out and setting: under `O=C(NC(=O)c1cccc(-c2noc(-c3ccccc3F)n2)c1)OC1Cc2ccccc2C1` [Compound 36] stands 165 to 168 °C; under `CC(OC(=O)NC(=O)c1cccc(-c2noc(-c3ccccc3F)n2)c1)c1ccccc1` (centres unmarked) [Compound 30], 140 to 141 °C; under `C[C@@H](OC(=O)NC(=O)c1cccc(-c2noc(-c3ccccc3F)n2)c1)C(N)=O` [Compound 44], 193 to 196 °C.
On the same count and under the same terms, under `O=C(NC(=O)c1cccc(-c2noc(-c3ccccc3F)n2)c1)Oc1ccccc1` [Compound 10] stands 252 to 254 °C.
Still for that read-out and setting: under `O=C(NC(=O)c1cccc(-c2noc(-c3ccccc3F)n2)c1)Nc1ccccn1` [Compound 9] stands 252 to 254 °C.
Regarding `CC(OC(=O)NC(=O)c1cccc(-c2noc(-c3ccccc3F)n2)c1)C1CC1` (centres unmarked) [Compound 31], the melting point is 150 to 152 °C.
Turning to `CC(OC(=O)NC(=O)c1cccc(-c2noc(-c3ccccc3F)n2)c1)C(C)(C)C` (racemic) [Compound 37, (±)-{3-[5-(2-Fluorophenyl)-[1,2,4]oxadiazol-3-yl]benzoyl}carbamic Acid 1,2,2-trimethylpropyl Ester], the melting point was 170 to 173 °C.
On the same count and under the same terms, under `O=C(NC(=O)c1cccc(-c2noc(-c3ccccc3F)n2)c1)Nc1ncccn1` [Compound 8] stands 247 to 249 °C; under `CC(OC(=O)NC(=O)c1cccc(-c2noc(-c3ccccc3F)n2)c1)c1ccncc1` (centres unmarked) [Compound 48], 180 to 183 °C; under `CCOC(=O)NC(=O)c1cccc(-c2noc(-c3ccccc3F)n2)c1` [Compound 2], 160.5 to 162 °C.
`O=C(NC(=O)C(F)(F)F)c1cccc(-c2noc(-c3ccccc3F)n2)c1` [Compound 47] showed a melting point of 119 to 120 °C.
Same read-out and setting: under `CC(=O)NC(=O)c1cccc(-c2noc(-c3ccccc3F)n2)c1` [Compound 45, N-Acetyl-3-[5-(2-fluorophenyl)-[1,2,4]oxadiazol-3-yl]benzamide] stands 119 to 120 °C.
Still for that read-out and setting: under `CC(C)C(C)OC(=O)NC(=O)c1cccc(-c2noc(-c3ccccc3F)n2)c1` (centres unmarked) [Compound 38] stands 168 to 170 °C; under `CONC(=O)NC(=O)c1cccc(-c2noc(-c3ccccc3F)n2)c1` [Compound 5], 206 to 207 °C.
The same measure, in the same setting: under `COC(=O)NC(=O)c1cccc(-c2noc(-c3ccccc3F)n2)c1` [Compound 1] stands 176 to 177 °C; under `O=C(NC(=O)c1cccc(-c2noc(-c3ccccc3F)n2)c1)OC1CCCC1` [Compound 22], 187 to 190 °C; under `O=C(NCCF)NC(=O)c1cccc(-c2noc(-c3ccccc3F)n2)c1` [Compound 7], 233 to 234 °C.
With `COCCOC(=O)NC(=O)c1cccc(-c2noc(-c3ccccc3F)n2)c1` [Compound 21], the melting point lay within 139 to 141 °C.
Same read-out and setting: under `O=C(NC(=O)N1CCN(c2ccccc2)CC1)c1cccc(-c2noc(-c3ccccc3F)n2)c1` [Compound 28] stands 169 to 173 °C.
On the same count and under the same terms, under `CC(C)OC(=O)NC(=O)c1cccc(-c2noc(-c3ccccc3F)n2)c1` [Compound 3] stands 172 to 174 °C; under `CC(OC(=O)NC(=O)c1cccc(-c2noc(-c3ccccc3F)n2)c1)c1ccc(C(F)(F)F)cc1` (centres unmarked) [Compound 40], 161 to 163 °C; under `O=C(NC(=O)c1cccc(-c2noc(-c3ccccc3F)n2)c1)OCC1CCCCC1` [Compound 18], 134 to 138 °C.
On the same count and under the same terms, under `O=C(NC(=O)c1cccc(-c2noc(-c3ccccc3F)n2)c1)NC1CC1` [Compound 4] stands 226 to 227.5 °C.
`Cc1cc(C)cc(NC(=O)NC(=O)c2cccc(-c3noc(-c4ccccc4F)n3)c2)c1` [Compound 27] yielded a melting point of 247 to 250 °C.
`O=C(NC(=O)N1CCCC1)c1cccc(-c2noc(-c3ccccc3F)n2)c1` [Compound 24] returned a melting point of 178 to 180 °C.
The same measure, in the same setting: under `CCN(CC)C(=O)NC(=O)c1cccc(-c2noc(-c3ccccc3F)n2)c1` [Compound 26] stands 161 to 163 °C.

In the next data set the test system is tripeptidyl-peptidase 1 (TPP-I). As to conditions: patient-derived LINCL cell line, compound heterozygous Arg208Stop and a rare nonsense mutation; maximal; cited from earlier work.
In the case of gentamicin, the “TPP-I restored, of normal levels” value is “approximately 7%”.
